According to publication PMC10485003, “Antibiotic hyper-resistance in a class I aminoacyl-tRNA synthetase with altered active site signature motif” (Nature Communications, 2023):
Where “and” joins values, the source holds several entries; their conditions need not be identical. Identical values can stand only once.

Legend:
IleRS1 = target: IleRS1; parameters: method as in PMID 6258580, PMID 9822630; conditions: type 1 proteins strongly inhibited; cited from earlier work
mut-HVGH DrIleRS2 = target: T1, mut-HVGH DrIleRS2 (Deinococcus radiodurans, UniProt Q9RUP8, A59H/H61G/L60V); experiment: biochemical
T1 construct: hexa-histidine tag (pET28b(+)) (N); made in house; host or cells: E. coli BL21(DE3)
T1 sequence (Q9RUP8 1-1078 A59H/L60V/H61G): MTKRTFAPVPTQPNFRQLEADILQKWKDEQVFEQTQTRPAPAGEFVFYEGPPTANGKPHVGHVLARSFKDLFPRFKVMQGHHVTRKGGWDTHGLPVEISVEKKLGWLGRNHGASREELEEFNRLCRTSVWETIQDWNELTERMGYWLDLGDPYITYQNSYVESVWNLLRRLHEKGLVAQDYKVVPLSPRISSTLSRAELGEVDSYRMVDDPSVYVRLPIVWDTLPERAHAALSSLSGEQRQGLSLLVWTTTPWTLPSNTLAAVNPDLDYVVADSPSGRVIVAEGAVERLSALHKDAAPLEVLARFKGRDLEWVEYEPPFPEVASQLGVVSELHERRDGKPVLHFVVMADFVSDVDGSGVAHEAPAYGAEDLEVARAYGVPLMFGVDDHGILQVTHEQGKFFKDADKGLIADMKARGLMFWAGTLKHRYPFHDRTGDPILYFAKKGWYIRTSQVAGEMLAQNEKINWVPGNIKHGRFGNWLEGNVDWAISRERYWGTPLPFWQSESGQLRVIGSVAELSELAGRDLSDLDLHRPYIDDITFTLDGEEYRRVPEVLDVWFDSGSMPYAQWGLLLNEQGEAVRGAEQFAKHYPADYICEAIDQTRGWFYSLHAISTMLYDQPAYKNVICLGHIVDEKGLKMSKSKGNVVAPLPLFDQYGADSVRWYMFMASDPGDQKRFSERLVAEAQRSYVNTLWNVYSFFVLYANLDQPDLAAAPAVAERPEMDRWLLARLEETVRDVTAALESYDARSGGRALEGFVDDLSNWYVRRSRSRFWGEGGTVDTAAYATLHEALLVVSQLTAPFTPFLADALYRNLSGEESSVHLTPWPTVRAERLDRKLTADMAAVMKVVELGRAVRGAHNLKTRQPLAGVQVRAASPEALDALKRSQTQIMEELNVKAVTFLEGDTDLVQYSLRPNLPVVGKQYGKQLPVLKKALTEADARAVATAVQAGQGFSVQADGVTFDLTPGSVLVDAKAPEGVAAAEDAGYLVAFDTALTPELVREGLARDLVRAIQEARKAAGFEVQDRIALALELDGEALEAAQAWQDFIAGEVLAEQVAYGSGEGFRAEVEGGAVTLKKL
Experimental: (§1) L-Ile and ATP concentrations ranged from 1/10 KM to 10 KM values. When measuring the KI towards one of the substrates, the other was held in saturation (concentrations at least 10 KM). The aliquots of the reaction mixture (1–2.5 μl) were quenched in 2 volumes of 500 mM NaOAc pH = 4.5, 0.1% SDS, and formed ^32P-ATP was separated from the remaining ^32P-PPi by thin-layer chromatography on Polygram CEL 300 PEI UV254 TLC plates (Macherey-Nagel, cat: 801063) using 750 mM KH2PO4 pH=3.5, 4 M urea buffer. Visualization and quantification of the signals was performed using a Typhoon Phosphoimager 5 (General Electric) and accompanying ImageQuant™ TL software (SV: 10.2). The kinetic constants were determined using a global fit option of the competitive inhibition model of GraphPad Prism 6 software (SV: 6.01). All experiments were performed in triplicates. The kcat was determined by dividing the maximal velocity, VM, with the used enzyme concentration. […]
(§2) variable substrate (ATP or Ile) was varied in the range of 0.1 KM to 10 KM. The other substrate (Ile or ATP) was kept in excess at 5 to 10 KM. Data were globally fitted to the competitive inhibition model using GraphPad prism 6.01 for Windows software. The values represent the average value ± SD of three independent experiments. Source data are provided as a Source Data file.
(§3) (1 picture or pasted object on this page, not shown here)

mut-GVHH TtIleRS2 = target: T2, mut-GVHH TtIleRS2 (Thermus thermophilus, UniProt P56690, G56H/H54G); experiment: biochemical
T2 construct: hexa-histidine tag (pET28b(+)) (N); made in house; host or cells: E. coli Rosetta2 (DE3)
T2 sequence (P56690 1-1043 H54G/G56H): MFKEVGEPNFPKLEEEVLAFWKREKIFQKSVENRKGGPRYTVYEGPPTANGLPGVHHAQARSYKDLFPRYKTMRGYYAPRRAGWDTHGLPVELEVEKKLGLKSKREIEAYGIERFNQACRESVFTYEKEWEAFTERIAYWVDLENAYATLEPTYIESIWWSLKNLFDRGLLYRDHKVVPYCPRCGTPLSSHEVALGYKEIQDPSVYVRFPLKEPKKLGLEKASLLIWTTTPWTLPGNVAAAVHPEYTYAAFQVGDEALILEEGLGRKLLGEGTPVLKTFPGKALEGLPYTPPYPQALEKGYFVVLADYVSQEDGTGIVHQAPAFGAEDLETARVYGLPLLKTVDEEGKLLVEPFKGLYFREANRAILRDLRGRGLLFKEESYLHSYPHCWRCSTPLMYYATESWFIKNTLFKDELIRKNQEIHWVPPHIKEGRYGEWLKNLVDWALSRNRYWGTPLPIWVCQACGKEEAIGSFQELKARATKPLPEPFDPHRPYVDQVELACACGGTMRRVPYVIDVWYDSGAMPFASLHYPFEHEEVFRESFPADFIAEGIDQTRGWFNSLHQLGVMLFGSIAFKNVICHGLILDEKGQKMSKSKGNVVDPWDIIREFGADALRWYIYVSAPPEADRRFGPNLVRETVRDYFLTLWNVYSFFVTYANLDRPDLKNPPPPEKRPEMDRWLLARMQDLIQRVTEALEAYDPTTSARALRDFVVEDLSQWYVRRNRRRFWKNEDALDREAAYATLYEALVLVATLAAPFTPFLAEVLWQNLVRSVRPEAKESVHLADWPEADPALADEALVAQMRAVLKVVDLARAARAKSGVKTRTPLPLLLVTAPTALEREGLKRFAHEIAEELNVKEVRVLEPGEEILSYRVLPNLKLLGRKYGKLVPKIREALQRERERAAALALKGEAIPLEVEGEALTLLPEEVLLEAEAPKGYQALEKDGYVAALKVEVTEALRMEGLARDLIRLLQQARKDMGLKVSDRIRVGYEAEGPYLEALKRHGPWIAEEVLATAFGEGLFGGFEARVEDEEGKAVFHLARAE
Experimental: as §1, §2, §3

[1] = KI (MUP)ATP, amino acid activation assay, ATP as variable substrate, average ± SD of three independent experiments
[2] = KI (MUP)Ile, amino acid activation step, ATP/PPi exchange assay, Ile varied, ATP saturating, average ± SD of three independent experiments
[3] = KI, single replicates, mupirocin inhibition towards Ile, GraphPad Prism output, Repl1-Repl3

For C/C(=C\C(=O)OCCCCCCCCC(=O)O)C[C@@H]1OC[C@H](C[C@@H]2O[C@H]2[C@@H](C)[C@H](C)O)[C@@H](O)[C@H]1O [mupirocin], the Ki (IleRS1) is given as “low nanomolar range”, the Ki (mut-HVGH DrIleRS2; [1]) is given as 9.3 ± 0.4 µM and the Ki (mut-HVGH DrIleRS2; [2]) is given as 8.1 ± 0.3 µM. The Ki (mut-HVGH DrIleRS2; [3]) was 7.8 µM and 8.4 µM (2×), the Ki (mut-GVHH TtIleRS2; [1]) was 34 ± 2 µM and the Ki (mut-GVHH TtIleRS2; [2]) was 35 ± 2 µM. For the same molecule, the Ki (mut-GVHH TtIleRS2; [3]) was 34 µM and 35 µM and 36 µM.
